From patent US7566789B2, “Benzimidazole derivatives” (Merck Patent GmbH, priority 2002, dated 2009)

Legend:
factor Xa = factor Xa (Homo sapiens, UniProt P00742); test: Inhibition of factor Xa (FXa-IC50); format: biochemical
Text: The inhibition of factor Xa by the compounds according to the invention and the measurement of the anticoagulant and antithrombotic activity can be determined by conventional in-vitro or in-vivo methods. A suitable method is described, for example, by J. Hauptmann et al. in Thrombosis and Haemostasis 1990, 63, 220-223.
The inhibition of factor Xa can be measured, for example by the method of T. Hara et al. in Thromb. Haemostas. 1994, 71, 314-319.

TF/FVIIa = TF/FVIIa (Homo sapiens, UniProt P08709); test: Inhibition of TF/factor VIIa (TF/FVIIa-IC50); format: biochemical
Text: The inhibition of factor VIIa by the compounds according to the invention and the measurement of the anticoagulant and antithrombotic activity can be determined by conventional in-vitro or in-vivo methods. A conventional method for the measurement of the inhibition of factor VIIa is described, for example, by H. F. Ronning et al. in Thrombosis Research 1996, 84, 73-81.

Sequence of TF/FVIIa (P08709 213-466 limits assumed): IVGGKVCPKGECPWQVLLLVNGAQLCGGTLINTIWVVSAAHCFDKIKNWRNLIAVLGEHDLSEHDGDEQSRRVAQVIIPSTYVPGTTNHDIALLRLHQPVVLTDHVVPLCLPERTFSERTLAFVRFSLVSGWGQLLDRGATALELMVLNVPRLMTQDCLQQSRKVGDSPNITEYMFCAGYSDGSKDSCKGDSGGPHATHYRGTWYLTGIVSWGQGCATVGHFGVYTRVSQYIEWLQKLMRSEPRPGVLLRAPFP
Sequence of TF/FVIIa (P08709 61-212 limits assumed): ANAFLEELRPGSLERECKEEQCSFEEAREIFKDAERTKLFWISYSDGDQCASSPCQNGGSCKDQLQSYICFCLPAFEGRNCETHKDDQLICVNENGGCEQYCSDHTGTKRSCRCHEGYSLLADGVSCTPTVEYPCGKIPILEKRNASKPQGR
Sequence of TF/FVIIa (P13726 33-295 partner): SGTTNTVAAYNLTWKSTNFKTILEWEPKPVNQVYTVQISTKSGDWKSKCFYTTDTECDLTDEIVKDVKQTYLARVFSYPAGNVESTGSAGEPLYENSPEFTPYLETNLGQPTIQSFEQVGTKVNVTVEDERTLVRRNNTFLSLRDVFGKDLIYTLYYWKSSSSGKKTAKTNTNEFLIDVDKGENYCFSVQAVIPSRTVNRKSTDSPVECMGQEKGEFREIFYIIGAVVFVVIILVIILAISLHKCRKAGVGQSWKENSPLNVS
Sequence of factor Xa (P00742 235-488 limits assumed): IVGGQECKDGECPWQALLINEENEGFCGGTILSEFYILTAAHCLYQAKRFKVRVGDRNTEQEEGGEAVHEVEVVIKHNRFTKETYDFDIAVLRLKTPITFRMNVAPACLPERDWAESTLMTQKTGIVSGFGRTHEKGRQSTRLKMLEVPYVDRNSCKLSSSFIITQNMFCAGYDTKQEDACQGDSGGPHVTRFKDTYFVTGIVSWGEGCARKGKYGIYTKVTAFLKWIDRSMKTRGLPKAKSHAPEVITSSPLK
Sequence of factor Xa (P00742 41-179 limits assumed): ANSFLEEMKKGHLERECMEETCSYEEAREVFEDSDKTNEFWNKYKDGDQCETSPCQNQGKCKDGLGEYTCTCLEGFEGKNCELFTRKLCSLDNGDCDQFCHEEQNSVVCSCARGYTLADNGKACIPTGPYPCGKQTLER

IC50 (factor Xa) | IC50 (TF/FVIIa) | melting point | Compound
180 nM | 130 nM | – | O=C(Cc1ccc2[nH]c(-c3ccc(Cl)s3)nc2c1)Nc1ccc(-n2ccccc2=O)cc1 [AC, 2-[2-(5-chlorothiophen-2-yl)-1H-benzimidazol-5-yl]-N-[4-(2-oxopyridin-1-yl)phenyl]acetamide]
120 nM | 130 nM | – | Cc1cc(NC(=O)Cc2ccc3[nH]c(-c4ccc(Cl)s4)nc3c2)ccc1N1CCOCC1=O [AB, 2-[2-(5-chlorothiophen-2-yl)-1H-benzimidazol-5-yl]-N-[3-methyl-4-(3-oxomorpholin-4-yl)phenyl]acetamide]
230 nM | 190 nM | 200 °C (dec.) | O=C(Cc1ccc2[nH]c(-c3ccc(Cl)s3)nc2c1)Nc1ccc(N2CCOCC2=O)cc1 [AA, 2-[2-(5-chlorothiophen-2-yl)-1H-benzimidazol-5-yl]-N-[4-(3-oxomorpholin-4-yl)phenyl]acetamide]
